Measurements published in PubChem BioAssay (NCI).
Where “and” joins values, the source holds several entries; their conditions need not be identical. Equal values may be shown once.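 Each compound was tested at five concentrations against cells in 96-well plates for 48 hours. The concentration for 50% growth inhibition is given as GI50. TGI is the concentration that stops growth completely.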

Key:
Assay in all cases: NCI tumour cell line growth inhibition, 48 h
[1] = tested on: KM20L2 colon
[2] = tested on: SNB-78 CNS
[3] = tested on: LXFL 529 NSCLC
[4] = tested on: XF 498 CNS
[5] = tested on: DLD-1 colon
[6] = tested on: DMS 273 small cell lung
[7] = tested on: M19-MEL melanoma
[8] = tested on: HOP-18 NSCLC
[9] = tested on: RXF-631 renal
[10] = tested on: P388 leukemia
[11] = tested on: P388/ADR leukemia
[12] = tested on: SN12K1 renal

Compound	TGI [1]	TGI [2]	TGI [3]	TGI [4]	TGI [5]	TGI [6]	TGI [7]	GI50 [1]	GI50 [2]	GI50 [3]	GI50 [5]	GI50 [8]	TGI [8]	GI50 [9]	TGI [9]	GI50 [6]	GI50 [7]	TGI [10]	TGI [11]	TGI [12]
NC(=O)c1cccc([N+](=O)[O-])c1	> 100000 nM	> 100000 nM	> 100000 nM	> 100000 nM	> 100000 nM	> 100000 nM	> 100000 nM													
COc1c(O)c(C=O)c2c(O)c(-c3c(C)cc4c(C(C)C)c(OC)c(O)c(C=O)c4c3O)c(C)cc2c1C(C)C	19900 nM	52300 nM	12000 nM		15800 nM	14900 nM	12400 nM													
[Cl][Sn]([c]1ccccc1)([c]1ccccc1)[c]1ccccc1	110 nM and 45.4 nM	439 nM and 85.1 nM	131 nM and 79.8 nM		140 nM and 28.2 nM	76.1 nM	96.9 nM and 43 nM	34 nM and 18.6 nM	84.7 nM and 21.9 nM	35.3 nM and 22.7 nM	37.8 nM and < 10 nM	29.3 nM	113 nM	47.2 nM	149 nM	28.3 nM	30.6 nM and 18.1 nM			
CC(=O)Oc1cc2c(cc1OC(C)=O)OCC(c1ccc(C)cc1)C2 (centres undefined)	60500 nM	55500 nM		32200 nM	45900 nM	48500 nM	23500 nM						62100 nM					20800 nM	11400 nM	34000 nM
CN(C)C(=O)OC1C(=O)N(C)c2ccc(Cl)cc2C2(c3ccccc3)N1C2(Cl)Cl (centres undefined)	> 100000 nM		> 100000 nM		> 100000 nM	> 100000 nM	> 100000 nM													
